The record followed here is patent US4539326A, “5-Oxo-5H-(1)benzopyrano(2,3-b)pyridine derivatives, their production and use as anti-inflammatory agents” (Takeda Chemical Industries, Ltd., priority 1982, dated 1985).

One assay concerns adjuvant arthritis. Kind of assay: Action of inhibiting adjuvant arthritis (M. butyricum adjuvant, oral, 14 days). It is filed as in vivo, male Sprague-Dawley rats (6-week old). The note with it: for Systemic inflammation score / Increase in body weight / Weight of thymus: 50 mg/kg oral once a day; for Systemic inflammation score: max score 20; for Increase in body weight / Weight of thymus: day 14; for Restraint of the increase in body weight (result in words) / Systemic inflammation score (result in words) / Weight of thymus (result in words): oral once a day for 14 days, compared with control group. Here is the method: As experimental animal, male Sprague-Dawley rats (6-week old) were used.
(§1) Adjuvant arthritis was induced by suspending killed cells of mycobacteria (M. butyricum strain) in liquid paraffin and injecting the rats with the resultant suspension beneath the skin of the hind-paw. The suspension obtained by suspending 70 mg of the test specimen [disodium(7-ethyl-3-carboxylato-5-oxo-5H-[1]benzopyrano[2,3-b]pyridin-2-yl)acetate] in 7 ml of 4% gum arabic was administered orally to rats once a day at a rate of 0.5 ml per 100 g of body weight for the consecutive 14 days after the injection of adjuvant. The degrees or severities of the inflammations induced on the other hind paw not injected with adjuvant, front paws, tail and ears were graded 1 to 5, and the grades were summed up for each animal, with the highest mark in total for the four body spots being 20. In addition, effects exerted by the administration on the increase in body weight (difference between the body weights measured after 14 days and on the day of sensitization) and the weight of thymus were investigated, and were compared with those obtained with the control group.
as §1, with “in liquid paraffine and injecting” for “in liquid paraffin and injecting”, “skin of hind-paw. The” for “skin of the hind-paw. The”, “test specimen [ethyl(7-ethyl-3-ethoxycarbonyl-5-oxo-5H-[1]benzopyrano[2,3-b]pyridin-2-yl)acetate] in 7” for “test specimen [disodium(7-ethyl-3-carboxylato-5-oxo-5H-[1]benzopyrano[2,3-b]pyridin-2-yl)acetate] in 7”

Another assay deals with phenylquinone writhing. Nature of the assay: mouse phenylquinone writhing method (analgesic activity). It is filed as in vivo.
Assay [1] deals with carrageenin-induced edema. Nature of the assay: rat carrageenin-induced edema method (antiinflammatory activity). It is filed as in vivo. A general note: In the carrageenan paw model, swelling and tenderness develop within hours.

For `CCc1ccc2oc3nc(CC(=O)O)c(C(=O)O)cc3c(=O)c2c1` [disodium(7-ethyl-3-carboxylato-5-oxo-5H-[1]benzopyrano[2,3-b]pyridin-2-yl)acetate], the Systemic inflammation score in the assay with adjuvant arthritis (Experiment 1 (Table 1), day 12 after sensitization, control 7.0 ± 0.9, * P <0.05) turned out to be 3.7 ± 1.1. The “Increase in body weight” value in the assay with adjuvant arthritis (Experiment 1 (Table 1), control 42.2 ± 2.5) is recorded as 50.0 ± 3.1 g. In the assay with adjuvant arthritis (Experiment 1 (Table 1), control 211.7 ± 21.5, * P <0.05), the Weight of thymus stood at 375 ± 52.0 mg. For the same compound, in the assay on adjuvant arthritis (Experiment 1 (Table 1), day 14 after sensitization, control 8.8 ± 0.7, * P <0.05), the Systemic inflammation score is listed as 4.7 ± 1.6. In addition, in the assay on adjuvant arthritis, the “Restraint of the increase in body weight (result in words)” value is “improve the systemic inflammation score and the restraint of the increase in body weight”; the “Systemic inflammation score (result in words)” value was “improve the systemic inflammation score”; the “Weight of thymus (result in words)” value is “increase the weight of thymus”. Also, the Analgesic activity result in the assay with phenylquinone writhing is “neither to exhibit the antiinflammatory activity in the rat carrageenin-induced edema method and the analgesic activity”. Moreover, in assay [1], the Antiinflammatory activity entry is given as “neither to exhibit the antiinflammatory activity”.
Regarding `CCOC(=O)Cc1nc2oc3ccc(CC)cc3c(=O)c2cc1C(=O)OCC` [ethyl(7-ethyl-3-ethoxycarbonyl-5-oxo-5H-[1]benzopyrano[2,3-b]pyridin-2-yl)acetate], the Systemic inflammation score with adjuvant arthritis (Experiment 2 (Table 2), day 12 after sensitization, control 6.7 ± 0.8, ** P <0.01) worked out at 3.3 ± 0.7. Moreover, the “Increase in body weight” value in the assay on adjuvant arthritis (Experiment 2 (Table 2), control 42.5 ± 3.2) is 43.3 ± 8.6 g. For the same compound, the Weight of thymus in the assay on adjuvant arthritis (Experiment 2 (Table 2), control 286.5 ± 34.3) came to 444.2 ± 69.9 mg. In the assay with adjuvant arthritis (Experiment 2 (Table 2), day 14 after sensitization, control 8.0 ± 0.5, ** P <0.01), the Systemic inflammation score worked out at 4.0 ± 1.0. In the assay on adjuvant arthritis, the “Restraint of the increase in body weight (result in words)” value was “improve the systemic inflammation score and the restraint of the increase in body weight”; the “Systemic inflammation score (result in words)” value was “improve the systemic inflammation score”; the “Weight of thymus (result in words)” value is “tendency to increase the weight of thymus”.
